# From patent US20180289637A1, “SUBSTITUTED CYCLOHEXANONES” (CLEXIO BIOSCIENCES LTD., priority 2016, published 2018)
# Experiments:
# C57Bl/6 strain mice = experiment: Tail Suspension Test (mice), Example 13; conditions: 120 mg/kg oral gavage
# [1] = Oral Single Dose PK Study in Rats
# Method: Male SD rats, 3 per timepoint, alternative timepoints, were used. […] Plasma was sampled at 10 min, 30 min, 1 h, 2 h, 3 h, 4 h, 7 h, 12 h, 24 h, and 30 h. The PK of the parent compound (deuterated and non-deuterated), as well as norketamine (deuterated and non-deuterated), 6-OH-norketamine (deuterated and non-deuterated), and dehydronorketamine (deuterated and non-deuterated) were analyzed.
# SD male rats [2] = experiment: Forced Swim Test (rats), Example 14; type: in vivo
# Method: The compounds were prepared by a chemist and coded, so the researcher was blinded to the treatment.
# NMDA receptor = conditions: inhibition of MK-801 binding; cited from earlier work
# SD male rats [3] = experiment: Forced Swim Test (rats), Example 12
# [4] = in vivo; cited from earlier work
# [5] = In vitro metabolism in human liver microsomes; conditions: 30 min, 10 μM, listed as d2 S-ketamine
# Method: (§1) Incubations were initiated by the addition of nicotinamine adenine dinucleotide phosphate (NADPH, 1 mM) and terminated by the addition of methanol. Samples were vortex mixed, stored on ice, and the samples were centrifuged at 1400×g for 5 minutes. Supernatants were removed from the microsome pellets and stored in new tubes at approximately −20° C. until analysis.
# (§2) Metabolites generated in microsome incubation samples were characterized by LC-MS/MS using a LTQ Orbitrap XL with electrospray ionization in positive ion mode. Semi-quantitation of the metabolites present in the samples was based on LC MS peak areas of the putative metabolites.
# [6] = In Vitro Liver Microsomal Stability Assay; conditions: 1 μM, 0.5 mg per mL liver microsomal protein, about 37° C.
# Method: Test articles were added for a final assay concentration of 1 μM and incubated at about 37° C. Reactions were started by addition of the cofactor, and were stopped at four designated time points (0, 15, 30 and 60 min) by the addition of an equal volume of stop reagent (e.g., acetonitrile containing an internal standard, 0.2 mL). Samples were then centrifuged at 920×g centrifugal force for 10 min at 10° C. to precipitate the proteins. Supernatants were analysed by LC/MS/MS.
# [7] = In vitro metabolism in rat liver microsomes; conditions: 15 min, 10 μM, listed as d2 S-ketamine
# Method: as §1, §2
# [8] = Stability of alpha-d2-(R/S)-ketamine in phosphate-buffered saline at various pH levels; type: physicochemical
# Method: Incubations of (d2) (R/S)-ketamine (e.g., 1 μM) with PBS (pH 2.0, 7.4 and 8.4) were carried out using a Tecan Liquid Handling System (Tecan), or equivalent, at 37±1° C. in 0.2-mL incubation mixtures (final volume) containing PBS, at the final concentrations indicated in a 96-well plate format. The test article was added to the incubation mixtures in water. […] Incubations were carried out in triplicate with an exception for zero-time samples (which were incubated in quadruplicate). The samples were centrifuged (e.g., 920×g for 10 min at 10° C.) and the supernatant fractions analyzed by LC-MS/MS. Non-deuterated (d0) (R/S)-ketamine was used as an internal standard. The amount of unchanged test article and formation of non-deuterated (d0) (R/S)-ketamine was monitored based on peak area ratio of the analyte/internal standard.
# [9] = male, SD, rat, plasma, po, 15 mg/kg
# [10] = male, SD, rat, plasma, po, 15 mg/kg, AUC0-t of Esketamine (deuterated and non-deuterated), 15 mg/kg p.o., rats
# [11] = male, SD, rat, plasma, po, 15 mg/kg, AUC0-t, 15 mg/kg p.o., male SD rats
# [12] = male, SD, rat, plasma, po, 60 mg/kg
# [13] = male, SD, rat, plasma, po, 60 mg/kg, AUC0-t of Esketamine (deuterated and non-deuterated), 60 mg/kg p.o., rats
# [14] = male, SD, rat, plasma, po, 60 mg/kg, AUC0-t, 60 mg/kg p.o., male SD rats
smiles,measurement,setting,value
"CN[C@]1(c2ccccc2Cl)CCCCC1=O [Esketamine, S-ketamine, reference compound]",adverse clinical symptoms,C57Bl/6 strain mice,"adverse clinical symptoms of vocalization, ataxia and drowsiness"
same,mortality,C57Bl/6 strain mice; 20 minutes after the oral gavage,One of the animals was found dead
same,Dehydronorketamine as metabolite (in words),"[1]; 15 and 60 mg/kg p.o., rats",minor metabolite
same,Cmax,[1]; [9],200 ng/mL
same,Tmax,[1]; [9],0.5 h
same,AUC(0-t),[1]; [10],183 ng·h/mL
same,AUC(0-t),[1]; [11],183 ng·h/mL
same,Cmax,[1]; [12],165 ng/mL
same,AUC(0-t),[1]; [13],498 ng·h/mL
same,AUC(0-t),"[1]; male, SD, rat, plasma, po, 60 mg/kg, AUC0-t of Esketamine, value in brackets (24 hr time point excluded), 60 mg/kg p.o., rats",311 ng·h/mL
same,AUC(0-t),[1]; [14],498 ng·h/mL
same,AUC(0-t),"[1]; male, SD, rat, plasma, po, 60 mg/kg, AUC0-t, 24 hr time point excluded, 60 mg/kg p.o., 24 hr time point excluded (7 hr was BLQ)",311 ng·h/mL
same,reduction in immobility time,"SD male rats [2]; 30 mg/kg, 30 min before the test (route printed as orally, i.p. in table)",60%
N[C@]1(c2ccccc2Cl)CCCCC1=O [(S)-norketamine],affinity for the NMDA receptor relative to the (R)-enantiomer,NMDA receptor,8 times
"CNC1(c2ccccc2Cl)CCCCC1=O (racemic) [Ketamine, ketamine, reference compound]",reduction in immobility time by manual counting,"SD male rats [3]; 30 mg/kg i.p., 30 min before test",54%
same,elimination half-life,[4],2 to 3 h
"NC1(c2ccccc2Cl)CCCCC1=O (racemic) [norketamine, N-desmethylketamine]",elimination half-life,[4],4 h
"[2H]C1([2H])CCC[C@](NC)(c2ccccc2Cl)C1=O [Example 1, (2S)-2-(2-chlorophenyl)-6,6-dideuterio-2-[deuterio(methyl)amino]cyclohexanone, deuterium chloride]",adverse clinical symptoms,C57Bl/6 strain mice,"adverse clinical symptoms of vocalization, ataxia and drowsiness"
same,"% Peak Area, component S-ketamine (parent remaining)",[5],33.6%
same,increase in degradation half-life as compared to non-isotopically enriched ketamine,[6],18%
same,reduction in immobility time,"SD male rats [3]; 120 mg/kg p.o., 75-90 min after the treatment",~25%
same,antidepressant-like effect on immobility time (in words),"SD male rats [3]; 60 or 120 mg/kg p.o., 75-90 min after the treatment",dose-response trend
same,6-OH norketamine levels (in words),"[1]; 15 and 60 mg/kg p.o., rats",lower
same,Dehydronorketamine as metabolite (in words),"[1]; 15 and 60 mg/kg p.o., rats",minor metabolite
same,Norketamine levels as compared to esketamine (in words),"[1]; 15 and 60 mg/kg p.o., rats",higher
same,Cmax,[1]; [9],136 ng/mL
same,AUC(0-t),[1]; [10],114 ng·h/mL
same,AUC(0-t),[1]; [11],114 ng·h/mL
same,Cmax,[1]; [12],163 ng/mL
same,AUC(0-t),[1]; [13],268 ng·h/mL
same,AUC(0-t),[1]; [14],268 ng·h/mL
same,plasma exposure to the parent compound (in words),"[1]; single oral administration of 15 or 60 mg/kg, male SD rats, S-ketamine D2 vs S-ketamine",essentially unchanged
same,"% Peak Area, component S-ketamine (parent remaining)",[7],2.6%
same,effect at 30 mg/kg (in words),SD male rats [2]; 30 min before the test,less pronounced compared to the lower dose
"[2H]C1([2H])CCCC(NC)(c2ccccc2Cl)C1=O (racemic) [d2-ketamine, alpha-d2-(R/S)-ketamine]",Mean percent remaining (0 min),"[8]; PBS pH 2.0, 37±1° C.",100%
same,Mean percent remaining (30 min),"[8]; PBS pH 2.0, 37±1° C.",94.6%
same,Mean percent remaining (60 min),"[8]; PBS pH 2.0, 37±1° C.",98.8%
same,Mean percent remaining (120 min),"[8]; PBS pH 2.0, 37±1° C.",93.9%
same,Mean percent remaining (0 min),"[8]; PBS pH 7.4, 37±1° C.",100%
same,Mean percent remaining (30 min),"[8]; PBS pH 7.4, 37±1° C.",98.3%
same,Mean percent remaining (60 min),"[8]; PBS pH 7.4, 37±1° C.",99.0%
same,Mean percent remaining (120 min),"[8]; PBS pH 7.4, 37±1° C.",96.0%
same,Mean percent remaining (0 min),"[8]; PBS pH 8.4, 37±1° C.",100%
same,Mean percent remaining (30 min),"[8]; PBS pH 8.4, 37±1° C.",96.4%
same,Mean percent remaining (60 min),"[8]; PBS pH 8.4, 37±1° C.",99.6%
same,Mean percent remaining (120 min),"[8]; PBS pH 8.4, 37±1° C.",95.1%
